US20250282768A1 (Janssen Pharmaceutica NV, priority 2022, published 2025)

System: p-IKKa levels in L363 (NIK translocated multiple myeloma) cells
Test: Assay 2: Effect of compounds on p-IKKa levels in L363 (NIK translocated multiple myeloma) cells
Format: cell-based
Conditions: Homo sapiens, L-363, 6 h, read-out: Assay 2 IC50 (nM), p-IKKa (Ser 176/180) in BAFF stimulated L363 cells with MG132, 6 h; average if tested more than once
Summary of the method: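 L363 cells incubated overnight ± 250 ng/ml BAFF, then 6 h at 37 °C with compound (0.3% DMSO) ± 10 μM MG132. Lysates assayed for p-IKKa (Ser176/180) by AlphaLISA SureFire. IC50 from sigmoidal fit of % inhibition normalized to BAFF/MG132-stimulated and unstimulated controls.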

SMILES	IC50
COCc1nc(Nc2nccc(-c3cccc(-c4cc([C@]5(O)CCN(C)C5=O)on4)n3)n2)n(C)n1 [Example 271, (R)-3-Hydroxy-3-(3-(6-(2-((3-(methoxymethyl)-1-methyl-1H-1,2,4-triazol-5-yl)amino)pyrimidin-4-yl)pyridin-2-yl)isoxazol-5-yl)-1-methylpyrrolidin-2-one]	> 500 nM
CN1CC[C@@](O)(c2cc(-c3cccc(-c4ccnc(Nc5cnn(C6CCNC6)c5)n4)n3)no2)C1=O (stereo partly drawn) [Example 90, (3R)-3-Hydroxy-1-methyl-3-(3-(6-(2-((1-(pyrrolidin-3-yl)-1H-pyrazol-4-yl)amino)pyrimidin-4-yl)pyridin-2-yl)isoxazol-5-yl)pyrrolidin-2-one]	50 to 500 nM
Cc1cc(C(C)Nc2nccc(-c3cccc(-c4cc([C@]5(O)CCN(C)C5=O)on4)n3)n2)on1 (stereo partly drawn) [Example 382, (3R)-3-Hydroxy-1-methyl-3-(3-(6-(2-((1-(3-methylisoxazol-5-yl)ethyl)amino)pyrimidin-4-yl)pyridin-2-yl)isoxazol-5-yl)pyrrolidin-2-one]	50 to 500 nM
CN1CC[C@@](O)(c2cc(-c3cccc(-c4ccnc(Nc5cn(C)cn5)n4)n3)no2)C1=O [Example 323, (R)-3-Hydroxy-1-methyl-3-(3-(6-(2-((1-methyl-1H-imidazol-4-yl)amino)pyrimidin-4-yl)pyridin-2-yl)isoxazol-5-yl)pyrrolidin-2-one]	50 to 500 nM
CN1CC[C@@](O)(c2cc(-c3cccc(-c4ccnc(Nc5nn(C)c6ncccc56)n4)c3)no2)C1=O [Example 421, (R)-3-Hydroxy-1-methyl-3-(3-(3-(2-((1-methyl-1H-pyrazolo[3,4-b]pyridin-3-yl)amino)pyrimidin-4-yl)phenyl)isoxazol-5-yl)pyrrolidin-2-one]	> 500 nM
C[C@@H](Nc1nccc(-c2cccc(-c3cc([C@]4(O)CCN(C)C4=O)on3)n2)n1)c1ccn(C)n1 (single isomer, unassigned) [Example 404, (R)-3-Hydroxy-1-methyl-3-(3-(6-(2-(((*R)-1-(1-methyl-1H-pyrazol-3-yl)ethyl)amino)pyrimidin-4-yl)pyridin-2-yl)isoxazol-5-yl)pyrrolidin-2-one]	> 500 nM
CN1CC[C@@](O)(c2cn(-c3cccc(-c4ccnc(Nc5cnn(CC(F)(F)F)c5)n4)n3)nn2)C1=O [Example 403, (R)-3-Hydroxy-1-methyl-3-(1-(6-(2-((1-(2,2,2-trifluoroethyl)-1H-pyrazol-4-yl)amino)pyrimidin-4-yl)pyridin-2-yl)-1H-1,2,3-triazol-4-yl)pyrrolidin-2-one]	< 50 nM
CN1CC[C@@](O)(c2cc(-c3cccc(-c4ccnc(NC5CCC5)n4)n3)no2)C1=O [Example 453, (R)-3-(3-(6-(2-(Cyclobutylamino)pyrimidin-4-yl)pyridin-2-yl)isoxazol-5-yl)-3-hydroxy-1-methylpyrrolidin-2-one]	50 to 500 nM
C[C@@H]1Cn2nc(Nc3nccc(-c4cccc(-c5cc([C@]6(O)CCN(C)C6=O)on5)n4)n3)cc2CO1 (single isomer, unassigned) [Example 114, (R)-3-Hydroxy-1-methyl-3-(3-(6-(2-(((*R)-6-methyl-6,7-dihydro-4H-pyrazolo[5,1-c][1,4]oxazin-2-yl)amino)pyrimidin-4-yl)pyridin-2-yl)isoxazol-5-yl)pyrrolidin-2-one]	< 50 nM
CN1CC[C@@](O)(c2cc(-c3cccc(-c4ccnc(Nc5ccnc(N6CCOCC6)c5)n4)n3)no2)C1=O [Example 320]	< 50 nM
C[C@@H](Nc1nccc(-c2cccc(-c3cc([C@]4(O)CCN(C)C4=O)on3)n2)n1)C(=O)N1CC(C)(F)C1 [Example 177, (R)-3-(3-(6-(2-(((R)-1-(3-Fluoro-3-methylazetidin-1-yl)-1-oxopropan-2-yl)amino)pyrimidin-4-yl)pyridin-2-yl)isoxazol-5-yl)-3-hydroxy-1-methylpyrrolidin-2-one]	> 500 nM
Cc1c(Nc2nccc(-c3cccc(-c4cc([C@@]5(O)C(=O)N(C)[C@@H]6C[C@@H]65)on4)n3)n2)cnn1C [Example 241, (1R,4R,5S)-4-(3-(6-(2-((1,5-Dimethyl-1H-pyrazol-4-yl)amino)pyrimidin-4-yl)pyridin-2-yl)isoxazol-5-yl)-4-hydroxy-2-methyl-2-azabicyclo[3.1.0]hexan-3-one]	50 to 500 nM
CN1C(=O)[C@](O)(c2cc(-c3cccc(-c4ccnc(Nc5cnn(C)c5)n4)n3)no2)C[C@H]1C(F)(F)F [Example 6, (3R,5S)-3-Hydroxy-1-methyl-3-(3-(6-(2-((1-methyl-1H-pyrazol-4-yl)amino)pyrimidin-4-yl)pyridin-2-yl)isoxazol-5-yl)-5-(trifluoromethyl)pyrrolidin-2-one]	50 to 500 nM
CO[C@H]1COCC[C@@H]1Nc1nccc(-c2cccc(-c3cc([C@]4(O)CCN(C)C4=O)on3)n2)n1 (stereo in doubt) [Example 355, (R)-3-Hydroxy-3-(3-(6-(2-(((trans)-3-methoxytetrahydro-2H-pyran-4-yl)amino)pyrimidin-4-yl)pyridin-2-yl)isoxazol-5-yl)-1-methylpyrrolidin-2-one]	> 500 nM
[2H]C([2H])([2H])n1cc(Nc2nccc(-c3cccc(-c4cc([C@]5(O)CCN(C)C5=O)on4)n3)n2)cn1 [Example 73, (R)-3-Hydroxy-1-methyl-3-(3-(6-(2-((1-(methyl-d3)-1H-pyrazol-4-yl)amino)pyrimidin-4-yl)pyridin-2-yl)isoxazol-5-yl)pyrrolidin-2-one]	< 50 nM
Cc1cc(-c2cccc(-c3cc([C@]4(O)CCN(C)C4=O)on3)n2)nc(Nc2cnn(C)c2)n1 [Example 207, (R)-3-Hydroxy-1-methyl-3-(3-(6-(6-methyl-2-((1-methyl-1H-pyrazol-4-yl)amino)pyrimidin-4-yl)pyridin-2-yl)isoxazol-5-yl)pyrrolidin-2-one]	> 500 nM
C[C@H](Nc1nccc(-c2cccc(-c3cc([C@]4(O)CCN(C)C4=O)on3)n2)n1)c1ccc2nccn2c1 [Example 153, (R)-3-Hydroxy-3-(3-(6-(2-(((S)-1-(imidazo[1,2-a]pyridin-6-yl)ethyl)amino)pyrimidin-4-yl)pyridin-2-yl)isoxazol-5-yl)-1-methylpyrrolidin-2-one]	> 500 nM
CN1CC(F)(F)[C@@](O)(c2cn(-c3cccc(-c4ccnc(Nc5cnn(C)c5Cl)n4)n3)nn2)C1=O [Example 109, (R)-3-(1-(6-(2-((5-Chloro-1-methyl-1H-pyrazol-4-yl)amino)pyrimidin-4-yl)pyridin-2-yl)-1H-1,2,3-triazol-4-yl)-4,4-difluoro-3-hydroxy-1-methylpyrrolidin-2-one]	< 50 nM
CN1CC[C@@](O)(c2cc(-c3cccc(-c4ccnc(NCC(=O)N5CC(F)(F)C5)n4)n3)no2)C1=O [Example 185, (R)-3-(3-(6-(2-((2-(3,3-Difluoroazetidin-1-yl)-2-oxoethyl)amino)pyrimidin-4-yl)pyridin-2-yl)isoxazol-5-yl)-3-hydroxy-1-methylpyrrolidin-2-one]	> 500 nM
CN1CC[C@@H](n2cc(Nc3nccc(-c4cccc(-c5cc([C@]6(O)CCN(C)C6=O)on5)n4)n3)cn2)[C@H](F)C1 (single isomer, unassigned) [Example 202]	< 50 nM
COc1cncc(Nc2nccc(-c3cccc(-c4cc([C@]5(O)CCN(C)C5=O)on4)n3)n2)c1 [Example 288, (R)-3-Hydroxy-3-(3-(6-(2-((5-methoxypyridin-3-yl)amino)pyrimidin-4-yl)pyridin-2-yl)isoxazol-5-yl)-1-methylpyrrolidin-2-one]	< 50 nM
CN(C)Cc1ccc(Nc2nccc(-c3cccc(-c4cc([C@]5(O)CCN(C)C5=O)on4)n3)n2)nc1 [Example 274, (R)-3-(3-(6-(2-((5-((Dimethylamino)methyl)pyridin-2-yl)amino)pyrimidin-4-yl)pyridin-2-yl)isoxazol-5-yl)-3-hydroxy-1-methylpyrrolidin-2-one]	50 to 500 nM
CN1CC[C@@](O)(c2cc(-c3cccc(-c4ccnc(N5CCn6nc(N)cc6C5)n4)c3)no2)C1=O [Example 417, (R)-3-(3-(3-(2-(2-Amino-6,7-dihydropyrazolo[1,5-a]pyrazin-5(4H)-yl)pyrimidin-4-yl)phenyl)isoxazol-5-yl)-3-hydroxy-1-methylpyrrolidin-2-one]	> 500 nM
Cc1nc(-c2ccc(Nc3nccc(-c4cccc(-c5cc([C@]6(O)CCN(C)C6=O)on5)n4)n3)nc2)n(C)n1 [Example 309, (R)-3-(3-(6-(2-((5-(1,3-Dimethyl-1H-1,2,4-triazol-5-yl)pyridin-2-yl)amino)pyrimidin-4-yl)pyridin-2-yl)isoxazol-5-yl)-3-hydroxy-1-methylpyrrolidin-2-one]	> 500 nM
CN1CC[C@@](O)(c2cc(-c3cccc(-c4ccnc(NC5CCOc6ncccc65)n4)n3)no2)C1=O (mixture of isomers) [Example 472, (3R)-3-(3-(6-(2-((3,4-Dihydro-2H-pyrano[2,3-b]pyridin-4-yl)amino)pyrimidin-4-yl)pyridin-2-yl)isoxazol-5-yl)-3-hydroxy-1-methylpyrrolidin-2-one]	50 to 500 nM
CNC(=O)c1cnc(C)c(Nc2nccc(-c3cccc(-c4cc([C@]5(O)CCN(C)C5=O)on4)n3)n2)c1 [Example 473, (R)-5-((4-(6-(5-(3-Hydroxy-1-methyl-2-oxopyrrolidin-3-yl)isoxazol-3-yl)pyridin-2-yl)pyrimidin-2-yl)amino)-N,6-dimethylnicotinamide]	50 to 500 nM
C[C@@H](Nc1nccc(-c2cccc(-c3cc([C@]4(O)CCN(C)C4=O)on3)n2)n1)c1cn[nH]c1 (single isomer, unassigned) [Example 148]	< 50 nM
CN1CC[C@@](O)(c2cc(-c3cccc(-c4ccnc(Nc5cc6n(n5)CCNC6)n4)n3)no2)C1=O [Example 430, (R)-3-Hydroxy-1-methyl-3-(3-(6-(2-((4,5,6,7-tetrahydropyrazolo[1,5-a]pyrazin-2-yl)amino)pyrimidin-4-yl)pyridin-2-yl)isoxazol-5-yl)pyrrolidin-2-one]	50 to 500 nM
